Assay results published in US7514254B2, “Plant-derived alkaline alpha-galactosidase” (The State of Israel, Ministry of Agriculture & Rural …, priority 1998, dated 2009).

Assays:
[1] = tested on: Cucurbita pepo leaf alkaline alpha-galactosidase ("LIV" enzyme); assay: Substrate kinetics of Cucurbita pepo leaf alkaline alpha-galactosidase (Gaudreault and Webb); format: biochemical; details: calculated for prior art "LIV" enzyme of Gaudreault and Webb
[2] = biological target: T1, melon (Cucumis melo) fruit alkaline alpha-galactosidase Form I (Cucumis melo, UniProt Q84NI7); assay: Substrate kinetics (Lineweaver-Burk) of alkaline alpha-galactosidase Form I
T1 sequence (Q84NI7 1-754): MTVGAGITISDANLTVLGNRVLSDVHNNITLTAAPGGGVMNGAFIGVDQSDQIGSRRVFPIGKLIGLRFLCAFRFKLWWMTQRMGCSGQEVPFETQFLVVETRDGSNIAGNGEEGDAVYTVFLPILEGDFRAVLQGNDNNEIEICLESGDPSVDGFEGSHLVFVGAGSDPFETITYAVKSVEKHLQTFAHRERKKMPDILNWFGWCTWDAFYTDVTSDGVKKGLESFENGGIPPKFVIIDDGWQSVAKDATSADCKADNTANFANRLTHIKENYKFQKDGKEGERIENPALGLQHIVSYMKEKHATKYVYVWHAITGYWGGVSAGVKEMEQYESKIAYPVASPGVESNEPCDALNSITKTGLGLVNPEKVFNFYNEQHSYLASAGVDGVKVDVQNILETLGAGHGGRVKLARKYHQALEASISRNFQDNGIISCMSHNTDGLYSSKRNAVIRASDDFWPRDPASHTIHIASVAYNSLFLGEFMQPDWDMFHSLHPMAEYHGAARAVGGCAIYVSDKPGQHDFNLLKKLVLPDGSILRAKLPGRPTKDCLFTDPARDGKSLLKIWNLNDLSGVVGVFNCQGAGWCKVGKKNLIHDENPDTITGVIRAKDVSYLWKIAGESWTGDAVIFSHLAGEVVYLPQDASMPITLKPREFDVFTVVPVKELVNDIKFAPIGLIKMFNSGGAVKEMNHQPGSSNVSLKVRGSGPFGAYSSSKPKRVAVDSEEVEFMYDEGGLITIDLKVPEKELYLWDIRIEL
Method: For routine analysis and monitoring the activity in the purification steps, alpha-galactosidase was assayed as described by Smart and Pharr (“Characterization of alpha-galactosidase from cucumber leaves”, Plant Physiology, 66:731-734, 1980), using p-nitrophenyl alpha-galactoside (pNPG) as substrate. Reaction was initiated by adding 50 μl enzyme aliquot to either 200 μl 100 mM pH 5.5 McIlvaine buffer or 100 mM pH 7.5 HEPES buffer, containing 5 mM pNPG at 35 C. The reaction was terminated after 10 min by adding 1 ml of 5% (w/v) Na2CO3 and activity expressed as nmol nitrophenol per min as measured at 410 nm. […] The assay was started by adding 50 μl enzyme preparation at 35 C and terminated after 10 to 20 min by 2 min boiling.
The fractions from the DEAE-Sepharose chromatography which were active at pH 7.5 were pooled and dialyzed against buffer A for 12 h prior to loading onto an HPLC ion exchange chromatography column (Mono-Q HR 5/5, Pharmacia, Uppsala, Sweden), previously equilibrated with buffer A. Bound proteins were eluted with a linear gradient of 0.1 to 0.45 M NaCl and the active fractions were detected using pNPG as substrate at pH 7.5 as described above. […] For the further purification of Form II the active fractions of the peak II were chromatographed on hydrophobic interaction chromatography. The fractions were pooled, brought to 1 M (NH4)2SO4 and loaded on to a hydrophobic interaction column (phenyl-Sepharose CL-4B, 0.5×12 cm, Pharmacia, Uppsala, Sweden) previously equilibrated with buffer A containing 1 M (NH4)2SO4. The protein was eluted with a reverse stepwise gradient from 1 to 0 M (NH4)2SO4 with 50 mM intervals in buffer A. Fractions containing the activity peak were collected and dialyzed for 12 h against buffer A and the dialysate was concentrated by reverse dialysis against solid sucrose. The enzyme, partially purified by hydrophobic interaction chromatography, was used for the characterization of Form II. The active fractions from the hydrophobic interaction column were further purified. Active fractions were separated electrophoretically using a Mini Prep Cell (Bio-Rad Laboratories, Hercules, Calif.) for discontinuous native-PAGE with 7% polyacrylamide, according to manufacturer's instructions. Fractions (0.25 ml/fraction) were assayed at pH 7.5 with pNPG as substrate for the activity. The active fractions were pooled, concentrated by Vivaspin Concentrator (Vivascience LTD, Lincoln, England), and run in a 8% SDS-PAGE. Proteins in the SDS-PAGE were identified using Coomassie Blue staining.
Therefore, the active fractions from the Mono-Q column were used for the characterization of Form I. In addition, the Form I enzyme was further purified, as described in the following section.

[3] = tested on: Cucurbita pepo leaf alkaline alpha-galactosidase ("LIV" enzyme); details: Gaudreault and Webb; alkaline form; cited from earlier work
[4] = tested on: melon (Cucumis melo) fruit acid form alpha-galactosidase; assay: Inhibition of acid alpha-galactosidase by alternative substrate (galactose release); format: biochemical, muskmelon (Cucumis melo L. cv C-8); details: 80 mM stachyose added to 10 mM raffinose
Method: For routine analysis and monitoring the activity in the purification steps, alpha-galactosidase was assayed as described by Smart and Pharr (“Characterization of alpha-galactosidase from cucumber leaves”, Plant Physiology, 66:731-734, 1980), using p-nitrophenyl alpha-galactoside (pNPG) as substrate. […] The reaction was terminated after 10 min by adding 1 ml of 5% (w/v) Na2CO3 and activity expressed as nmol nitrophenol per min as measured at 410 nm. […] The substrate specificity of the alpha-galactosidases was tested with pNPG, stachyose, raffinose, melibiose or guar gum (Sigma).

[5] = tested on: melon (Cucumis melo) fruit acid form alpha-galactosidase; assay: Substrate kinetics (Lineweaver-Burk) of acid alpha-galactosidase; format: biochemical, muskmelon (Cucumis melo L. cv C-8)
Method: For routine analysis and monitoring the activity in the purification steps, alpha-galactosidase was assayed as described by Smart and Pharr (“Characterization of alpha-galactosidase from cucumber leaves”, Plant Physiology, 66:731-734, 1980), using p-nitrophenyl alpha-galactoside (pNPG) as substrate. […] The reaction was terminated after 10 min by adding 1 ml of 5% (w/v) Na2CO3 and activity expressed as nmol nitrophenol per min as measured at 410 nm. […] The assay was started by adding 50 μl enzyme preparation at 35 C and terminated after 10 to 20 min by 2 min boiling. […] For the partial purification of the acid form of alpha-galactosidase the fractions active at pH 5.5 were pooled and concentrated by reverse dialysis against solid sucrose. […] The active fractions were then desalted by dialysis against buffer A for 12 hours with two changes of the buffer. This enzyme fraction was used for the characterization of the acidic form of alpha-galactosidase. […] The substrate specificity of the alpha-galactosidases was tested with pNPG, stachyose, raffinose, melibiose or guar gum (Sigma).

SMILES: OC[C@H]1O[C@H](OC[C@H]2O[C@H](OC[C@H]3O[C@H](O[C@]4(CO)O[C@H](CO)[C@@H](O)[C@@H]4O)[C@H](O)[C@@H](O)[C@@H]3O)[C@H](O)[C@@H](O)[C@H]2O)[C@H](O)[C@@H](O)[C@H]1O [Stachyose, O-alpha-D-galactopyranosyl-(1-6)-O-alpha-D-galactopyranosyl-(1-6)-O-alpha-D-glucopyranosyl-(1-2)-beta-D-fructofuranoside]
- Vmax/Km ratio [1]: 0.65
- Vmax/Km ratio [2]: 0.06
- Vmax ([2]; Lineweaver-Burk): 0.24 μmol mg^−1 protein min^−1
- Km [3]: 4.5 mM
- inhibition by excess stachyose (free galactose release) [4]: 45%
- Vmax/Km ratio [5]: 0.02
- Km ([5]; Lineweaver-Burk): 10.5 mM
- Vmax ([5]; Lineweaver-Burk): 0.23 μmol mg^−1 protein min^−1
